Measured values published in US9693551B2, “Pesticidal dispersible concentrate formulations” (Valent U.S.A., Corporation, priority 2013, dated 2017).

What was measured:
Format in all cases: in vivo
Fusarium = experiment: Efficacy on corn seed in Illinois, soil inoculated with Fusarium; settings: for Plants per acre 14DAP / Plants per acre 28DAP: Fusarium-inoculated soil; for Plants per acre 14DAP: 14 days after planting; for Plants per acre 28DAP: 28 days after planting; for % disease: number of plants with Fusarium infection
Description: Corn seeds were treated with 1 fluid ounce per one hundred weight (fl oz/cwt) or 65 mls/100 kg seed of the Formulations of Examples 1 and 4 prior to being planted in Illinois. Untreated seeds (“UTC”) were planted to assess the disease impact in stand establishment. Besides the control, commercially available and known fungicides were applied to determine the effectiveness of formulations of the present invention. Maxim® XL (Maxim is a registered trademark of Syngenta) is a fungicide containing 21% fludioxonil and 8.4% mefenoxam in a proprietary formulation. Apron XL® (Apron XL is a registered trademark of Syngenta) is fungicide containing 33.3% of mefenoxam in a proprietary formulation. Metalaxyl was applied in a 30.1% formulation and metconazole was applied in an approximately 40% dispersion with approximately 4% glycerine and other inert ingredients.
At planting, the soil was inoculated with a fungus of the genus Fusarium, a common corn plant pathogen that causes stalk rot disease, to assess field performance and seedling protection of the above formulas.
“Plants per acre” was determined to establish stand density. “% disease” was calculated by observing number of plants with Fusarium infection. The “height (cm) on roots” was determined. Stand Density and % Disease of Illinois Corn Plants after Seed Treatment.”

Corn seeds = experiment: Efficacy on corn seeds in Mississippi (emergence and yield)
Rhizoctonia = experiment: Efficacy on corn seed in Ohio, soil inoculated with Rhizoctonia
Description: Corn seeds were treated with 1 fluid ounce per one hundred weight (fl oz/cwt) of the Formulations of Examples 1 and 4 prior to being planted in Ohio. Untreated seeds were planted to assess the disease impact in stand establishment. Besides the control, commercially available and known fungicides were applied to determine the effectiveness of formulations of the present invention.
At planting, the soil was inoculated with a fungus of the genus Rhizoctonia, a common corn plant pathogen that causes rot disease, to assess field performance and seedling protection of the above formulas.
“Plants per acre” was determined to establish stand density. Stand Density of Ohio Corn Plants after Seed Treatment.”

Row | Compound | Height (cm) on roots (Fusarium) [cm] | Plants per acre 14DAP (Fusarium) [plants per acre] | Plants per acre 28DAP (Fusarium) [plants per acre] | % disease (Fusarium) [%] | Yield (bu/A) (Corn seeds) | Yield (kg/hectare) (Corn seeds) | % Emergence 20DAP (Corn seeds) [%] | % Emergence 35DAP (Corn seeds) [%] | Plants per acre 14DAP (Rhizoctonia) [plants per acre] | Plants per acre 28DAP (Rhizoctonia) [plants per acre]
1 | COCC(=O)N(c1c(C)cccc1C)C(C)C(=O)OC (centres unmarked) [Metalaxyl, metalaxyl] | 61.0 | 25352 | 26049 | 18.0 | 154 | 9662.3 | 91.5 | 83.3 | 22400 | 28700
2 | CC1(C)CCC(Cc2ccc(Cl)cc2)C1(O)Cn1cncn1 (centres unmarked) [Metconazole, metconazole] | 57.3 | 28401 | 29011 | 37.6 | 155.5 | 9756.4 | 80.8 | 84.8 | 28875 | 28700
